{"source": "patent US20110142873A1", "about": "(priority 2006, published 2011)", "key": {"[1]": {"system": "E7-specific CD8-positive T lymphocytes", "parameters": "species or system C57Bl/6 mice", "conditions": "mouse, in vivo"}, "E7 and HspE7": {"system": "E7 and HspE7", "parameters": "species or system C57Bl/6 female mice", "conditions": "mouse, in vivo"}, "[2]": {"system": "E7-expressing TC-1.K tumor cells", "assay": "Regression of large, established TC-1 tumors treated from day 28", "parameters": "species or system C57Bl/6 mice", "conditions": "mouse, in vivo"}, "[3]": {"system": "E7-expressing TC-1 tumors", "parameters": "species or system C57BL/6 mice", "conditions": "mouse, in vivo, sc"}}, "data": [{"substance": "PolyICLC", "values": [{"measurement": "biological activity of immune stimulant administered in the absence of HspE7", "setting": "[1]", "result": "did not display this activity"}, {"measurement": "antibody response to E7 and HspE7", "setting": "E7 and HspE7", "result": "did not produce an antibody response"}, {"measurement": "regression of large, established tumors", "setting": "[2]", "result": "no regression"}]}, {"substance": "PolyI:C", "values": [{"measurement": "biological activity of immune stimulant administered in the absence of HspE7", "setting": "[1]", "result": "did not display this activity"}, {"measurement": "anti-tumor activity", "setting": "[3]", "result": "no effect on tumor growth"}]}]}
